“Also recorded” adds a separate entry of the source. Read-outs that look alike come from different tables or passages of the source.

One test deals with human KCNQ5 (hKCNQ5) (Homo sapiens, UniProt Q9NR82). As to the kind of experiment: Two-electrode voltage clamp, Xenopus oocyte-expressed hKCNQ5-mediated outward currents. As to conditions: Xenopus oocytes, n=3, single concentration (10 or 20 μM). It counts as cell-based. How it is done: (§1) The ability of the compounds described herein to open KCNQ channels and increase whole-cell outward (K^+) KCNQ-mediated currents was assessed under voltage-clamp conditions by determining their ability to increase cloned […] KCNQ2 (mKCNQ2)-mediated, heteromultimeric murine KCNQ2/3 (mKCNQ2/3)-mediated, and heterologous human KCNQ5 (hKCNQ5)-mediated outward currents expressed in Xenopus oocytes. Oocytes were prepared and injected using standard techniques; each oocyte was injected with approximately 50 nl of mKCNQ2, or hKCNQ5 cRNA. In the case of mKCNQ2/3 heteromultimeric channel expression, equal amounts (25-50 nL) of each cRNA were co-injected.
Chain of human KCNQ5 (hKCNQ5) (Q9NR82 whole entry): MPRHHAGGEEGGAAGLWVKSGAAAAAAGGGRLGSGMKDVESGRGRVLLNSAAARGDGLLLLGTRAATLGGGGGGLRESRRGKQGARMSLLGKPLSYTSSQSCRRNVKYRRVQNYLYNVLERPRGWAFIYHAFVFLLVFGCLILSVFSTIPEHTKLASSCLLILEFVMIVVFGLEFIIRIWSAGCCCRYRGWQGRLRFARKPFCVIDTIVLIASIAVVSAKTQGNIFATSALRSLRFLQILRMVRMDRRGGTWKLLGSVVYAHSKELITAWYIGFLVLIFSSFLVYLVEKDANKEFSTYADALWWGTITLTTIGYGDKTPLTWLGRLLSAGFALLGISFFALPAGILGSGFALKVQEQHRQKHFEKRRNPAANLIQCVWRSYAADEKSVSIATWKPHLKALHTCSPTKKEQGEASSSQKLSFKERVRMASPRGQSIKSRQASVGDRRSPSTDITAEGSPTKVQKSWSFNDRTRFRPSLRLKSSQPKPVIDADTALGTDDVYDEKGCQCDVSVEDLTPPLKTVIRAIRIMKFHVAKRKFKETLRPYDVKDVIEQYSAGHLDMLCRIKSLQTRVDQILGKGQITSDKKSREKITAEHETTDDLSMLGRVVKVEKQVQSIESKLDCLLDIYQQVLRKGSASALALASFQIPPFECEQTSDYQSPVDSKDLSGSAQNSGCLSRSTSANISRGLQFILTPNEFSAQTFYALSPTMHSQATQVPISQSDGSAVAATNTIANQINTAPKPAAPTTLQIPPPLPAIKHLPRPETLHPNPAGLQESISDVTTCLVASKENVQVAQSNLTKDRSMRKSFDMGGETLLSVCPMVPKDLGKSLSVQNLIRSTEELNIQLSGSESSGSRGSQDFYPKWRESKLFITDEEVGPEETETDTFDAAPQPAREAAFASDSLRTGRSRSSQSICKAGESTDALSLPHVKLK
(§2) Following injection, oocytes were maintained at 17° C. in ND96 medium containing (in mM): NaCl, 90; KCl, 1.0; CaCl2, 1.0; MgCl2, 1.0; HEPES, 5.0; pH 7.5. Horse serum (5%) and penicillin/streptomycin (5%) were added to the incubation medium. Recording commenced 2-6 days following mRNA injection. […]
(§3) Frog (Xenopus laevis) oocytes were impaled with electrodes (1-2 MΩ) and standard 2-electrode voltage clamp techniques were employed to record whole-cell membrane currents. […] Compounds were evaluated at a single concentration (10 or 20 μM), and the effect of the selected compounds of Formula I on KCNQ2 current was expressed as the percent of control current. […]
In general terms: In two-electrode clamp one electrode senses voltage and the other passes current.

The target of a further test is murine KCNQ2 (mKCNQ2) (Mus musculus, UniProt Q9Z351). As to the kind of experiment: Two-electrode voltage clamp, Xenopus oocyte expressed mKCNQ2-mediated outward currents. In kind it is cell-based. As to conditions: 10 μM, Xenopus oocytes. How it is done: as §1, §2, §3
Chain of murine KCNQ2 (mKCNQ2) (Q9Z351 whole entry): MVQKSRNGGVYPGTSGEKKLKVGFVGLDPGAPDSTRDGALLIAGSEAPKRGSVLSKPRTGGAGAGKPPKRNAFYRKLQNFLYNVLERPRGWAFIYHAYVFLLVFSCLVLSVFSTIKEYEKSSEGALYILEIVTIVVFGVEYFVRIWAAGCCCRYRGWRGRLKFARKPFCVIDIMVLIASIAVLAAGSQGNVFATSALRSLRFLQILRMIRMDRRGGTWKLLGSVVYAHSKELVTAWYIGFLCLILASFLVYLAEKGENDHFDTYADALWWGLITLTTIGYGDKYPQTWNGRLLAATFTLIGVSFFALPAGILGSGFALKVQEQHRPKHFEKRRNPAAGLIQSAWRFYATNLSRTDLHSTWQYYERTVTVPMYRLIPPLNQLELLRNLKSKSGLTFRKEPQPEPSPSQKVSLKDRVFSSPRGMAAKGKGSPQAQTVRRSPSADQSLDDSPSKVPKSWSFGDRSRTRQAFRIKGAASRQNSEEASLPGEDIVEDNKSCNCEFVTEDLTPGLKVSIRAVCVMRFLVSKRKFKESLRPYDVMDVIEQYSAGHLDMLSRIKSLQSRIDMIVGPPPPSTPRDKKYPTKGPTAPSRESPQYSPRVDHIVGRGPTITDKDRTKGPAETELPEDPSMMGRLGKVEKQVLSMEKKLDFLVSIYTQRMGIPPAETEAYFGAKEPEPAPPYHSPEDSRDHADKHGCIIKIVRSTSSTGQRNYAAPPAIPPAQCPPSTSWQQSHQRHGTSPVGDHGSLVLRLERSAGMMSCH
The subject of test [1] is cortical spreading depression. As to the kind of experiment: Cortical spreading depression elicited by KCl application. As to conditions: rat, 0.1, 1.0, 5.0, 10.0 and 30.0 mg/kg i.v. vs vehicle (overall ANOVA p<0.001). In kind it is in vivo. How it is done: (§4) Male Long-Evans rats (Harlan, 250-400 g) were used in the experiments described in this example. Prior to testing, rats were allowed access to food and water ad libitum and were maintained on a 12:12 hours light/dark cycle. Rats were group housed in an Association for Assessment and Accreditation of Laboratory Animal Care (A.A.A.L.A.C.) accredited facility and cared for in strict compliance with all applicable regulations.
Rats were anesthetized with urethane anesthesia (1.2 g/kg i.p.), implanted with a jugular vein catheter for drug injections, and placed in a stereotaxic frame. The skull was exposed and a small hole (approximately 2 mm by 3 mm) was drilled in the skull rostral to the lambdoid suture using a microdrill and steel burr creating a “well”. The dura was disrupted and a drop of mineral oil was placed in this well. Crystalline KCl was later applied to the well for 10 minutes to elicit spreading depression. Typically, this application produced a long-lasting series of spreading depressions.
Two additional holes were placed in the skull unilaterally at 4 and 8 mm rostral to the application hole. Silver wire electrodes were placed in these latter holes and secured to the skull using acrylic cement. […]
Differences between control and drug conditions were assessed using analyses of variance (ANOVA) and appropriate post-hoc analyses. […]

Test [2] concerns SSS-stimulated field responses recorded in the trigeminal nucleus caudalis. As to the kind of experiment: SSS-stimulated trigeminal field response (in vivo model of migraine). Details: species or system rat. How it is done:
as §4
SSS stimulation and recording were performed in a manner consistent with previously published methods using cat (K. L. Hoskin et al., 1996, Brain, 119:101-108) and rat (M. J. Cumberbatch et al., 1998, Eur. J. Pharmacol., 362:43-46; and M. J. Cumberbatch et al., 1999, Br. J. Pharmacol., 126:1478-1486) animal models. Rats were anesthetized with 1.2 g/kg i.p. urethane (#U-2500, Sigma Chemical Company, St. Louis, Mo.) and given supplemental urethane as needed. In the case of intravenous (i.v.) drug administration (e.g., (+)-3-[5-Chloro-2-[(2,2,2-trifluoroethoxy)phenyl]-1,3-dihydro-3-fluoro-6-(trifluoromethyl)-2H-indol-2-one), the jugular veins of the rats were cannulated using sylastic tubing pre-filled with vehicle. […]
Stimulated field responses were recorded in the trigeminal nucleus caudalis using Teflon coated stainless-steel microelectrodes (5 MΩ impedance, Frederick Haer, Brunswick, Me.) and amplified and filtered (0.1 Hz-10 kHz) using a differential amplifier (#IsoDAM8, World Precision Instruments, Sarasota, Fla.). […]
Three baseline measures (i.e., 100% of control), each consisting of 100 evoked trigeminal field potentials, were sampled prior to drug injection. […] Following injection of test substances, data were sampled for 1 hour, averaged into 5 minute bins (90 evoked potentials) and expressed as a percent change from average baseline values for the purposes of statistical analysis. Data were analyzed using repeated measures analyses of variance comparing vehicle and drug effects. […]

Test [3] relates to SSS-stimulated trigeminal activity. The note with it: cited from earlier work.

In the case of `O=C1Nc2cc(C(F)(F)F)ccc2C1(F)c1cc(Cl)ccc1OCC(F)(F)F` (single isomer, unassigned; (+)) [Compound 1], the “human KCNQ5-mediated outward currents, % of control” value on human KCNQ5 (hKCNQ5) is given as 157.4+/−6.0 % of control. The “increase of KCNQ2 current over the KCNQ2 current in controls” value on murine KCNQ2 (mKCNQ2) is given as above 150%. Also, in test [1], the “number of spreading depressions produced by a single 10 min KCl application” value is “significant reduction”. For the same molecule, in test [2] (rat, 50 mg/kg i.v. (highest dose)), the “decrease in trigeminal field potentials from control amplitude” value is 86.7±1.67%. The “effect on SSS-stimulated trigeminal field response” value in test [2] (rat, doses 0.1, 1.0, 10.0, 30.0 and 50.0 mg/kg i.v., vs vehicle (p<0.01 in all cases; overall ANOVA p<0.001)) is listed as “dose-dependent reduction; also recorded: significant reduction; also recorded: dose-dependent decrease”.
With `O=C(NCc1ccc(C(F)(F)F)cc1)c1cnc(N2CCCC2)nc1C(F)(F)F` [Compound 2, 2-(Pyrrolidin-1-yl)-4-(trifluoromethyl)-N-[[4-(trifluoromethyl)phenyl]methyl]pyrimidine-5-carboxamide], in test [2] (urethane anesthetized rats, 1 mg/kg i.v.), the “effect on SSS stimulation evoked trigeminal field potential amplitude” value was “statistically significant (p=0.005) decrease”.
Regarding `CN1C[C@H](C(=O)N[C@]2(C)O[C@@]3(O)[C@@H]4CCCN4C(=O)[C@H](Cc4ccccc4)N3C2=O)C[C@@H]2c3cccc4[nH]cc(c34)C[C@H]21` [dihydroergotamine], in test [3] (literature reports), the “physiological measures of SSS-stimulated trigeminal activity” value (shortened to “physiological measures”) is reported as “decrease”.
`CNS(=O)(=O)CCc1ccc2[nH]cc(C3CCN(C)CC3)c2c1` [naratriptan]: the “physiological measures” value in test [3] (literature reports) is given as “decrease”.
Regarding `CN(C)CCc1c[nH]c2ccc(Cn3cncn3)cc12` [rizatriptan], the “physiological measures” value in test [3] (literature reports) is “decrease”.
In the case of `CNS(=O)(=O)Cc1ccc2[nH]cc(CCN(C)C)c2c1` [sumatriptan], the “physiological measures” value in test [3] (following blood-brain-barrier disruption, literature report) was “decrease”.
On to `CN(C)CCc1c[nH]c2ccc(C[C@H]3COC(=O)N3)cc12` [zolmitriptan], for which the “physiological measures” value in test [3] (literature reports) was “decrease”.

Source of the values: patent US6855829B2, “3-fluoro-2-oxindole modulators of KCNQ potassium channels and use thereof in treating migraine and mechanistically related disease” (Bristol-Myers Squibb Company, priority 2001, dated 2005).
